Data set [1] deals with T1, recombinant human secretory phospholipase A2 (Homo sapiens, UniProt P14555).
T1 sequence (P14555 21-144): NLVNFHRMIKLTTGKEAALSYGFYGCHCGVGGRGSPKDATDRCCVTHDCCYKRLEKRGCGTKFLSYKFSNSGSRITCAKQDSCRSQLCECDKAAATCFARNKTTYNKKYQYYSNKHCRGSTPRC
Nature of the data set: Inhibition Test of Human Secretory Phospholipase A2 (chromogenic assay). It counts as biochemical. The following applies: sPLA2 50 ng/well, 40° C., 30 minutes, OD 405 nm, 96 well microtiterplate. The source says:
Test Example: Inhibition Test of Human Secretory Phospholipase A2
In order to identify and evaluate an inhibitor of recombinant human secretory phospholipase A2, the following chromogenic assay is utilized. The assay herein has been applied for high volume screening wherein 96 well microtiterplate is used. A general explanation for such assay is described in “Analysis of Human Synovial Fluid Phospholipase A2 on Short Chain Phosphatidylcholine-Mixed Micelles: Development of a Spectrophotometric Assay Suitable for a Micortiterplate Reader” (Analytical Biochemistry, 204, pp 190-197, 1992 by Laure. J. Reynolds. Lori L. Hughes and Edward A. Dennis: the disclosure of which is incorporated herein for reference.
pH 7.5 (adjusted with NaOH)
pH 4.5 (adjusted with acetic acid)
1 mg of sPLA2 is dissolved in 1 ml of an enzyme buffer. Thereafter, the solution is maintained at 4° C.
In the assay, 5 μl of the solution is diluted with 1995 μl of the reaction buffer to be used.
198 mg of 5,5′-dithiobis-2-[…] (manufactured by Wako Pure Chemicals) is dissolved in 100 ml of H2O
H 7.5 (adjusted with NaOH)
100 mg of racemic 1,2-bis(heptanoylthio)-1,2-dideoxy-sn-glycero-3-phospholylcholine is dissolved in 1 ml of chloroform.
624.9 mg of Triton-X 100 is dissolved in the reaction buffer.
Enzyme Reaction: for 1 Plate of Microtiterplate
1) 0.106 ml of the substrate solution is put in a centrifugal tube, and nitrogen gas is jetted to remove the solvent. 0.54 ml of Triton-X 100 is added thereto, the mixture is stirred, thereafter it is sonified in a bath type sonification to dissolve. To the resulting product are added 17.8 ml of the reaction buffer and 0.46 ml of DTNB, and 0.18 ml each of the admixture is poured to wells of the 96 well microtiterplate.
2) 10 μl of a test compound (or solvent blank) are added in accordance with alignment of plates which has been previously set.
3) Incubation is effected at 40° C. for 15 minutes.
4) 20μl of an enzyme solution (sPLA2) which has been previously diluted (50 ng/well) are added to start reaction (40° C., 30 minutes).
5) Changes in absorbancy for 30 minutes are measured by a plate reader, and inhibition activity was calculated (OD: 405 nm).
6) IC50 was determined by plotting log concentration with respect to inhibition values within 10% to 90% inhibiting range.

For `CCc1c(C(=O)C(N)=O)c2c(OCC(=O)OC)nc(C)cn2c1CC1CCCC1` [Compound I-23], the melting point – broadly, the temperature of the solid-liquid transition – lay in the range of 135 to 136.5 °C. Also, in data set [1], the IC50 (as a rule, the concentration that inhibits the measured activity by half) stood at 0.651 µM.
For `CCc1c(C(=O)C(N)=O)c2c(OCC(=O)O)nc(C)cn2c1CC1CCCC1` [Compound I-24] the same measures were 192 to 193 °C and 0.017 µM.
For `CCc1c(C(=O)C(N)=O)c2c(OCC(=O)OC)nc(C)cn2c1Cc1ccccc1F` [Compound I-25] the same measures were 187 to 188 °C and 0.196 µM.
In turn, `CCc1c(C(=O)C(N)=O)c2c(OCC(=O)O)nc(C)cn2c1Cc1ccccc1F` [Compound I-26] had a melting point of 218 to 219 °C. Further, in data set [1], the IC50 came out at 0.012 µM.
Consider `CCc1c(C(=O)C(N)=O)c2c(OCC(=O)OC)nc(C)cn2c1Cc1ccccc1Cc1ccccc1` [Compound I-27], for which the melting point was in the range of 134.5 to 136 °C. For the same molecule, the IC50 in data set [1] stood at 0.022 µM.
Molecule `CCc1c(C(=O)C(N)=O)c2c(OCC(=O)O)nc(C)cn2c1Cc1ccccc1Cc1ccccc1` [Compound I-28] came in with a melting point of 180.5 to 182.5 °C. In addition, in data set [1], the 50% inhibitory concentration (IC50) was found to be 0.007 µM.
The molecule `CCc1c(C(=O)C(N)=O)c2c(OCC(=O)OC)nc(C)cn2c1Cc1ccccc1-c1ccc(F)cc1` [Compound I-29] returned a melting point of 147 to 149 °C. In addition, the IC50 in data set [1] was found to be 0.056 µM.
For `CCc1c(C(=O)C(N)=O)c2c(OCC(=O)O)nc(C)cn2c1Cc1ccccc1-c1ccc(F)cc1` [Compound I-30] the same measures were 175 to 177 °C and 0.008 µM.
As for `CCc1c(C(=O)C(N)=O)c2c(OCC(=O)OC)nc(C)cn2c1Cc1ccc(F)cc1F` [Compound I-31], the melting point was in the range of 161 to 163 °C. The IC50 in data set [1] came to 1.17 µM.
Regarding `CCc1c(C(=O)C(N)=O)c2c(OCC(=O)O)nc(C)cn2c1Cc1ccc(F)cc1F` [Compound I-32], the melting point fell in the range of 208 to 210 °C. In addition, in data set [1], the IC50 worked out at 0.028 µM.
The molecule `CCc1c(C(=O)C(N)=O)c2c(OCC(=O)OC)nc(C)cn2c1Cc1ccc(OC)cc1` [Compound I-33] gave a melting point of 189 to 190 °C. For the same molecule, the IC50 in data set [1] is 0.703 µM.
`CCc1c(C(=O)C(N)=O)c2c(OCC(=O)O)nc(C)cn2c1Cc1ccc(OC)cc1` [Compound I-34] gave a melting point of 200 to 201.5 °C. For the same molecule, the half-inhibitory concentration (IC50) in data set [1] was determined as 0.026 µM.
The molecule `CCc1c(C(=O)C(N)=O)c2c(OCC(=O)OC)nc(C)cn2c1Cc1cccc(F)c1` [Compound I-35] showed a melting point of 179.5 to 181 °C. Moreover, the IC50 in data set [1] was determined as 0.182 µM.
`CCc1c(C(=O)C(N)=O)c2c(OCC(=O)O)nc(C)cn2c1Cc1cccc(F)c1` [Compound I-36]: the melting point lay in the range of 190.5 to 193 °C. The IC50 in data set [1] came out at 0.011 µM.
As for `CCc1c(C(=O)C(N)=O)c2c(OCC(=O)OC)nc(CO)cn2c1Cc1ccccc1` [Compound I-37], the melting point lay within 201 to 202 °C. Moreover, the half-inhibitory concentration (IC50) in data set [1] stood at 0.726 µM.
The molecule `CCc1c(C(=O)C(N)=O)c2c(OCC(=O)O)nc(CO)cn2c1Cc1ccccc1` [Compound I-38] showed a melting point of 211 to 212 °C. Besides, the IC50 in data set [1] turned out to be 0.033 µM.
For `CCc1c(C(=O)C(N)=O)c2c(OCC(=O)OC)nc(C(C)C)cn2c1Cc1ccccc1` [Compound I-39], the melting point was 190 to 191 °C. For the same molecule, in data set [1], the IC50 was 0.151 µM.
Consider `CCc1c(C(=O)C(N)=O)c2c(OCC(=O)O)nc(C(C)C)cn2c1Cc1ccccc1` [Compound I-40], for which the melting point was 211 to 213 °C. Besides, in data set [1], the IC50 turned out to be 0.012 µM.
For `CCc1cn2c(Cc3ccccc3)c(CC)c(C(=O)C(N)=O)c2c(OCC(=O)OC)n1` [Compound I-41] the same measures were 154 to 156 °C and 0.107 µM.
For `CCc1cn2c(Cc3ccccc3)c(CC)c(C(=O)C(N)=O)c2c(OCC(=O)O)n1` [Compound I-42] the same measures were 197 to 198 °C and 0.01 µM.
`CCc1c(C(=O)C(N)=O)c2c(OCC(=O)OC)nc(-c3ccccc3)cn2c1Cc1ccccc1` [Compound I-43]: the melting point lay within 203 to 205 °C. The IC50 in data set [1] worked out at 0.041 µM.
In turn, `CCc1c(C(=O)C(N)=O)c2c(OCC(=O)O)nc(-c3ccccc3)cn2c1Cc1ccccc1` [Compound I-44] gave a melting point of 233 to 234 °C. Besides, the IC50 in data set [1] came out at 0.007 µM.
Molecule `CCc1c(C(=O)C(N)=O)c2c(OCC(=O)OC)nc(CC(C)C)cn2c1Cc1ccccc1` [Compound I-45] came in with a melting point of 129 to 130 °C. Also, in data set [1], the IC50 worked out at 0.117 µM.
For `CCc1c(C(=O)C(N)=O)c2c(OCC(=O)O)nc(CC(C)C)cn2c1Cc1ccccc1` [Compound I-46] the same measures were 216 to 217 °C and 0.01 µM.
Take `CCc1c(C(=O)C(N)=O)c2c(OCC(=O)OC)nc(Cc3ccccc3)cn2c1Cc1ccccc1` [Compound I-49]: the melting point is 178 to 180 °C. Also, the IC50 in data set [1] amounted to 0.211 µM.
As to `CCc1c(C(=O)C(N)=O)c2c(OCC(=O)O)nc(Cc3ccccc3)cn2c1Cc1ccccc1` [Compound I-50], the melting point was in the range of 200 to 202 °C. For the same molecule, the IC50 in data set [1] turned out to be 0.017 µM.
Turning to `CCc1c(C(=O)C(N)=O)c2c(OCC(=O)OC)nc(C)cn2c1Cc1ccccc1-c1cccs1` [Compound I-51], the melting point fell in the range of 134.5 to 136 °C. Further, in data set [1], the 50% inhibitory concentration (IC50) worked out at 0.061 µM.
`CCc1c(C(=O)C(N)=O)c2c(OCC(=O)OC)nc(C)cn2c1Cc1ccccc1C#Cc1ccccc1` [Compound I-53]: the melting point lay in the range of 147 to 149 °C. In data set [1], the IC50 was 0.059 µM.
As for `CCc1c(C(=O)C(N)=O)c2c(OCC(=O)OC)nc(C)cn2c1Cc1ccccc1Oc1ccccc1` [Compound I-55], the melting point lay in the range of 161 to 163 °C. Moreover, the IC50 in data set [1] worked out at 0.032 µM.
`CCc1c(C(=O)C(N)=O)c2c(OCC(=O)O)nc(C)cn2c1Cc1ccccc1Oc1ccccc1` [Compound I-56, [7-Ethyl-3-methyl-8-oxamoyl-6-(2-phenyloxybenzyl)pyrrolo [1,2-a]pyrazin-1-yl]oxyacetic acid] had a melting point of 208 to 210 °C. Besides, in data set [1], the 50% inhibitory concentration (IC50) amounted to 0.006 µM.
For `CCc1c(C(=O)C(N)=O)c2c(OCC(=O)OC)nc(C)cn2c1Cc1cccc(-c2ccc(C)s2)c1` [Compound I-63], the melting point fell in the range of 179.5 to 181 °C. Also, the IC50 in data set [1] was found to be 0.057 µM.
`CCc1c(C(=O)C(N)=O)c2c(OCC(=O)O)nc(C)cn2c1Cc1cccc(-c2ccc(C)s2)c1` [Compound I-64] displayed a melting point of 190.5 to 193 °C. Further, the IC50 in data set [1] is 0.006 µM.
In turn, `CCc1c(C(=O)C(N)=O)c2c(OCC(=O)OC)nc(C)cn2c1Cc1ccccc1-c1ccc(C)cc1` [Compound I-69] yielded a melting point of 167.5 to 169.5 °C. In addition, the 50% inhibitory concentration (IC50) in data set [1] was 0.033 µM.
In the case of `CCc1c(C(=O)C(N)=O)c2c(OCC(=O)O)nc(C)cn2c1Cc1ccccc1-c1ccc(C)cc1` [Compound I-70], the melting point was in the range of 179.5 to 181.5 °C. For the same molecule, in data set [1], the IC50 stood at 0.005 µM.
For `CCc1c(C(=O)C(N)=O)c2c(OCC(=O)OC)nc(C)cn2c1Cc1ccccc1C(=O)c1ccccc1` [Compound I-71], the melting point lay in the range of 190 to 192 °C. In addition, in data set [1], the IC50 came out at 0.901 µM.
Turning to `CCc1c(C(=O)C(N)=O)c2c(OCC(=O)O)nc(C)cn2c1Cc1ccccc1C(=O)c1ccccc1` [Compound I-72], the melting point lay within 131 to 133 °C. Also, in data set [1], the half-inhibitory concentration (IC50) is 0.013 µM.
On to `CCc1c(C(=O)C(N)=O)c2c(OCC(=O)OC)nc(C)cn2c1Cc1ccccc1CCc1ccccc1` [Compound I-73], for which the melting point lay in the range of 215 to 217 °C. In data set [1], the half-inhibitory concentration (IC50) was determined as 0.129 µM.
Molecule `CCc1c(C(=O)C(N)=O)c2c(OCC(=O)O)nc(C)cn2c1Cc1ccccc1CCc1ccccc1` [Compound I-74] displayed a melting point of 189 to 191 °C. Further, the IC50 in data set [1] is 0.006 µM.
Molecule `COC(=O)COc1nc(C)cn2c(Cc3ccccc3)c(C3CC3)c(C(=O)C(N)=O)c12` [Compound I-75] came in with a melting point of 210 to 211.5 °C. Moreover, the IC50 in data set [1] came out at 1.46 µM.
For `Cc1cn2c(Cc3ccccc3)c(C3CC3)c(C(=O)C(N)=O)c2c(OCC(=O)O)n1` [Compound I-76] the same measures were 194.5 to 196 °C and 0.029 µM.
In turn, `COC(=O)COc1nc(C)cn2c(Cc3ccc(F)cc3)c(C3CC3)c(C(=O)C(N)=O)c12` [Compound I-77] came in with a melting point of 179 to 182.5 °C. The half-maximal inhibitory concentration (IC50) in data set [1] amounted to 1.38 µM.

Source of the values: patent publication US6407104B1, “Pyrrolo[1,2-a]pyrazine spla2 inhibitor” (Shionogi & Co., Ltd., priority 1998, dated 2002).
